Data: ChEMBL document CHEMBL1158055, “Grandisines C-G, indolizidine alkaloids from the Australian rainforest tree Elaeocarpus grandis” (J Nat Prod, 2006)

biological target: Delta-type opioid receptor (Homo sapiens, UniProt P41143); test: Displacement of [125I]deltorphin 2 from human recombinant delta opioid receptor expressed in HEK293 cells; assay type: cell-based
Sequence (P41143 whole entry): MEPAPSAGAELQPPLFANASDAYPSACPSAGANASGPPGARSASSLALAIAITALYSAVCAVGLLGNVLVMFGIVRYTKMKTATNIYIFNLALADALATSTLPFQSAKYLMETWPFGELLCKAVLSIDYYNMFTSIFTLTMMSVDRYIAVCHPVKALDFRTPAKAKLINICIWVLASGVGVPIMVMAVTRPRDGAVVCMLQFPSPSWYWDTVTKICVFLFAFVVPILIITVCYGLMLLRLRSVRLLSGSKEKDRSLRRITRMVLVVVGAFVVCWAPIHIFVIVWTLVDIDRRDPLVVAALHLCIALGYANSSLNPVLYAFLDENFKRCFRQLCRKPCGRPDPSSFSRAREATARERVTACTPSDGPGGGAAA

IC50 [µM] | SMILES
9.9 | C[C@H]1CC=CC2=C1C(=O)[C@@H]1[C@@H](CCN3CCC[C@@H]13)O2
14.6 | C[C@H]1C[C@H](O)CC2=C1C(=O)[C@@H]1[C@@H](CCN3CCC[C@@H]13)O2 [GRANDISINE C]
1.55 | C[C@H]1C[C@H](N)CC2=C1C(=O)[C@@H]1[C@@H](CCN3CCC[C@@H]13)O2 [GRANDISINE F]
75.4 | COC(=O)C[C@@H]1C[C@H](C)CC(C2=CCCN3CCCC23)=N1 (stereo not given in full) [GRANDISINE G]

SMILES | IC50 [µM]
C[C@H]1CC=CC(=O)[C@@H]1C(=O)C1=CCCN2CCC[C@@H]12 [GRANDISINE D] | 1.65
